Data set [1] concerns the target T1, hM2 (Homo sapiens, UniProt P08172).
T1 sequence (P08172 1-466): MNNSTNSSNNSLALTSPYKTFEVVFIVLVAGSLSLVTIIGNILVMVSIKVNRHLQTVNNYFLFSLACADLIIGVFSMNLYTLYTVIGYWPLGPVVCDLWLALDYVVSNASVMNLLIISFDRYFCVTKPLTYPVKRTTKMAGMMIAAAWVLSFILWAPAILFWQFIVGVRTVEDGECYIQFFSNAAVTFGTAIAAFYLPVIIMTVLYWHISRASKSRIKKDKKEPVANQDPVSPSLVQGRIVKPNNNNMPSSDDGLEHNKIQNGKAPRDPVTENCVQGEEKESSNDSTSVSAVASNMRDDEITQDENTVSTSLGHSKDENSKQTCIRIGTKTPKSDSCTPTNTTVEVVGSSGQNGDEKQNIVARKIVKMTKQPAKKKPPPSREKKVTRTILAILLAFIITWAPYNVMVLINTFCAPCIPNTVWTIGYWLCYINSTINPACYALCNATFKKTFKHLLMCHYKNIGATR
The data set can be described thus: Competitive [3H]NMS radioligand binding, CHO-K1 membranes expressing hM2. The settings on record: [3H]NMS, CHO-hM2 cell membrane preparations; >1000 values from two independent (single-concentration) experiments; read-out: Affinity: Ki ± SD hM2. An excerpt: (§1) The arecaidine esters’ affinities towards the human mAChR subtypes hM1–hM5 were studied in a competitive radioligand binding assay using CHO-K1 cell membrane homogenates expressing a single mAChR subtype and tritiated N-methyl scopolamine methyl chloride ([^3H]NMS). To speed up our affinity testing regime, we subjected all test substances to preliminary single-concentration displacement assays, as described previously. Compounds with percent displacements below 75% at any of the subtypes were dropped from further investigations (Table S1). For compounds meeting the percent displacement threshold (8c, 10b, 10c, 17b, 18b, and 25), inhibition constants (Ki) were assessed in dose-dependent displacement experiments (Table 2).
(§2) Cell membranes bearing hM1-hM5 receptors were prepared as described previously. Briefly, stably transfected CHO-K1 cells were grown to at least 80% confluency in T175 flasks, washed with ice-cold DPBS, and scraped into a mixture of ice-cold 2 mL 10 mM Tris-HCl, 1 mM EDTA-buffer, pH 7.4 and 200 µL protease inhibitor. A cell homogenate was prepared by passing the cell suspension through a G29 needle. The cell homogenates corresponding to two T175 flasks were combined and subsequently centrifuged (10 min, 1000× g, 4 °C). Ultracentrifugation of the supernatant (1 h, 100,000× g, 4 °C) yielded a membrane pellet, which was suspended in 250 µL 50 mM Tris-HCl buffer, pH 7.4 and stored at −80 °C.
(§3) Then, 5 µL of test compound in DMSO, 50 µL of [^3H]NMS in assay buffer, and 445 µL of membrane suspension in assay buffer were incubated for 90 min at 23 °C in PP tubes. Maximum binding was measured by using 5 µL DMSO, and nonspecific binding was measured by using 5 µL of 1 µM scopolamine in DMSO. The effective concentration of [^3H]NMS was 0.2 nM, 0.3 nM, 0.8 nM, 0.2 nM, and 1 nM for M1–M5 and 4–30 µg membrane were used per tube. The membrane-bound radioactivity was recovered by filtration through Whatman™ GF/B glass fiber filters presoaked in aqueous 0.1% PEI using an M-36 tygon tubed cell harvester (Brandel®, Gaithersburg, MD, USA). Membranes were washed three times with ice-cold washing buffer (50 mM Tris, pH 7.4) before being dried, transferred to 2 mL scintillation cocktail (UltimaGold™, high flashpoint LSC cocktail, PerkinElmer, Waltham, MA, USA) and counted in a β-counter (Hidex TDCR liquid scintillation counter in CPM mode). IC50 values were calculated by a variable slope logistic regression using at least five distinct concentrations of test compounds, pipetted in triplicates.

Data set [2] concerns the target T2, hM5 (Homo sapiens, UniProt P08912).
T2 sequence (P08912 1-532): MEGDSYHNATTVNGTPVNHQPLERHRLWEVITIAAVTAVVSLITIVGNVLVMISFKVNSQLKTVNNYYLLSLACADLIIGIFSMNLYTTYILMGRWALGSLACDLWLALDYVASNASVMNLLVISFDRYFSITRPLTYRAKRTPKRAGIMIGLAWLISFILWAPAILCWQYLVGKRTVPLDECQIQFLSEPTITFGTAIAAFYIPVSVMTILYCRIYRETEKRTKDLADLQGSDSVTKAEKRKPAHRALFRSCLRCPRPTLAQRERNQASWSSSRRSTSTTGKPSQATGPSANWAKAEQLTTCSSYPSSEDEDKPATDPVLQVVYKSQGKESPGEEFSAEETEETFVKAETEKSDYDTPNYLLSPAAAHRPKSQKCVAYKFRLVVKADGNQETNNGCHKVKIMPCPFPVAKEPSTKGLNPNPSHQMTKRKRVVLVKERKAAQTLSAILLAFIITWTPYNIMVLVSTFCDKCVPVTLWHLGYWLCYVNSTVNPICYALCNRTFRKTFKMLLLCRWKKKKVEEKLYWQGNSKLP
In words: Competitive [3H]NMS radioligand binding, CHO-K1 membranes expressing hM5. The settings on record: for Ki: [3H]NMS, CHO-hM5 cell membrane preparations, read-out: Affinity: Ki ± SD hM5.
Excerpt: as §1, §2, §3

Data set [3] is described as follows: High-throughput HPLC-logD. It is filed as physicochemical. The settings on record: octadecyl-poly(vinyl alcohol) column, methanol / 0.01 M sodium phosphate buffer pH 7.4. An excerpt: For this, logD values were estimated in an HPLC-based high-throughput assay employing an octadecyl-poly(vinyl alcohol) stationary phase. The absence of silanol groups renders this type of column especially suited in case of analytes with hydrogen bond donor capabilities as it avoids overestimating their lipophilicity.
Briefly, a mixture of toluene (≥98%, Sigma-Aldrich, St. Louis, MO, USA) and triphenylene (≥99.9%, Carl Roth, Karlsruhe, Germany) was used as internal standard. Samples were dissolved in the internal standard mixture. Using gradient elution, the injection volume was set to 7 µL, the flow rate was 1.5 mL/min, and the mobile phase consisted of a mixture of methanol and 0.01 M sodium phosphate buffer pH 7.4. The HPLC-logD values were derived from the measured retention times following the previously published equation [21, 40].

Data set [4] deals with hM3 (Homo sapiens, UniProt P20309). The data set can be described thus: Competitive [3H]NMS radioligand binding, CHO-K1 membranes expressing hM3. The settings on record: [3H]NMS, CHO-hM3 cell membrane preparations; read-out: Affinity: Ki ± SD hM3.
Chain of hM3 (P20309 whole entry): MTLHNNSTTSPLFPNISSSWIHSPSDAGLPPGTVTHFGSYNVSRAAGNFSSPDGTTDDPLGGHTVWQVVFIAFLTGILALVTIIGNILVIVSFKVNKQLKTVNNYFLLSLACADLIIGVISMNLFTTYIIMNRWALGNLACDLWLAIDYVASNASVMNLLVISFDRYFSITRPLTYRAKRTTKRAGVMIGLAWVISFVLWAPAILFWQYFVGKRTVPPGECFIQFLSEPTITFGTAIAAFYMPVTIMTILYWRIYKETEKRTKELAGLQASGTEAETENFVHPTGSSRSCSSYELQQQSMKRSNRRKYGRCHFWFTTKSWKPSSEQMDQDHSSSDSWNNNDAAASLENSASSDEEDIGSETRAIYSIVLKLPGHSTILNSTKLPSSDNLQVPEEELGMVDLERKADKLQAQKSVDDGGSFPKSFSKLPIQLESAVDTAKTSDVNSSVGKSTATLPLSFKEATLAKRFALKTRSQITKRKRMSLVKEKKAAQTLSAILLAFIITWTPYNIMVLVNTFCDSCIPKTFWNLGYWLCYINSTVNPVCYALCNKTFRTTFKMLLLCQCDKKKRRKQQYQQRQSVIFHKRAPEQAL
Excerpt: as §1, §2, §3

SMILES strings stand for the structures.

Regarding `CN1CCC=C(C(=O)OCc2ccc(CO)cc2)C1` [Compound 8c, 4-(hydroxymethyl)benzyl 1-methyl-1,2,5,6-tetrahydropyridine-3-carboxylate], the Ki in data set [1] was greater than 1000 nM; in data set [2] it was 417 ± 73 nM; in data set [4], 663 ± 56 nM. The same compound displayed a chromatographic logD in data set [3] of 1.03 ± 0.04.
`CN1CCC=C(C(=O)OC(c2ccccc2)c2cccc(O)c2)C1` (stereo not drawn) [Compound 17b, (3-hydroxyphenyl)(phenyl)methyl 1-methyl-1,2,5,6-tetrahydropyridine-3-carboxylate] had a melting point of 143 to 144 °C. Besides, in data set [1], the Ki amounted to 172 ± 20 nM. Besides, the Ki in data set [2] was 11 ± 1.5 nM. In data set [3], this compound had a chromatographic logD of 2.69 ± 0.01. For the same compound, the Ki in data set [4] amounted to 20.4 ± 1.2 nM.
Consider `CN1CCC=C(C(=O)OC(c2ccccc2)c2ccc(CO)cc2)C1` (stereo not drawn) [Compound 10c, (4-(hydroxymethyl)phenyl)(phenyl)methyl 1-methyl-1,2,5,6-tetrahydropyridine-3-carboxylate], for which the results for the Ki in data set [1], in data set [2] and in data set [4] were 980 ± 32 nM, 72 ± 13 nM and 150 ± 26 nM, respectively. The chromatographic logD in data set [3] was determined as 2.8 ± 0.2.
As to `CN1CCC=C(C(=O)OCc2cccc(O)c2)C1` [Compound 18b, 3-hydroxybenzyl 1-methyl-1,2,5,6-tetrahydropyridine-3-carboxylate], the melting point was 115 to 119 °C. In addition, the Ki in data set [1] is greater than 1000 nM. Further, the Ki in data set [2] turned out to be 90 ± 27 nM. The “preference for hM5R over hM1R” value in data set [2] (in vitro binding affinities) is “almost threefold”. For the same compound, in data set [3], the chromatographic logD stood at 1.57 ± 0.04. The Ki in data set [4] came to 188 ± 18 nM.
`CN1CCC=C(C(=O)OCC(O)(c2ccccc2)c2ccccc2)C1` [Compound 25, 2-hydroxy-2,2-diphenylethyl 1-methyl-1,2,5,6-tetrahydropyridine-3-carboxylate] showed a melting point of 150 to 153 °C. Further, the Ki in data set [1] is greater than 1000 nM. Also, in data set [2], the Ki was found to be 284 ± 62 nM. Also, in data set [3], the chromatographic logD was 2.69 ± 0.01. The Ki in data set [4] is 283 ± 20 nM.
